In ChEMBL document CHEMBL2311253, “Isatin replacements applied to the highly selective, muscarinic M1 PAM ML137: continued optimization of an MLPCN probe molecule” (Bioorg Med Chem Lett, 2013):
Active and inactive are the calls of the source. The calls are words filed in the database; no cut-off is given here.

How the values were obtained:
Assay type in all cases: functional
[1] = molecular target: T1, Muscarinic acetylcholine receptor M1 (Homo sapiens) (UniProt P11229); test: Positive allosteric modulator activity at human muscarinic M1 receptor relative to acetylcholine by calcium mobilization assay; set-up: concentration or dose not given beside the values
T1 sequence (whole entry): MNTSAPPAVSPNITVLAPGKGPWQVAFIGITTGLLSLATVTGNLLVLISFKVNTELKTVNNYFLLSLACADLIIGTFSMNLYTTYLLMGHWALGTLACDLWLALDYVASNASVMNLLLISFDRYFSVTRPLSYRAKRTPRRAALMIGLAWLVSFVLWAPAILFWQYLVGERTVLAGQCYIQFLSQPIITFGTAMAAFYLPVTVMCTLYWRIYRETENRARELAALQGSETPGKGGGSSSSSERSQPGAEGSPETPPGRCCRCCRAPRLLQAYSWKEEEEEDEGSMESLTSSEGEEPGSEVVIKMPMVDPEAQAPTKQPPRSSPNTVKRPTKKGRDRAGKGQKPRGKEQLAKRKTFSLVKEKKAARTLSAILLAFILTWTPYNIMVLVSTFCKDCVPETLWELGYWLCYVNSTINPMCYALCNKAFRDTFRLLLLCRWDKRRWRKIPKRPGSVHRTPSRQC

[2] = molecular target: T2, Muscarinic acetylcholine receptor M1 (Homo sapiens, UniProt P11229); test: Positive allosteric modulator activity at human muscarinic M1 receptor by calcium mobilization assay
T2 sequence (P11229 whole entry): T1 sequence (whole entry)

[3] = molecular target: T1, Muscarinic acetylcholine receptor M1 (Homo sapiens); test: Positive allosteric modulator activity at human muscarinic M1 receptor up to 30 uM by calcium mobilization assay
[4] = molecular target: T1, Muscarinic acetylcholine receptor M1 (Homo sapiens); test: Positive allosteric modulator activity at human muscarinic M1 receptor assessed as fold shift of acetylcholine concentration curve to the left at 30 uM by calcium mobilization assay relative to untreated acetylcholine control
[5] = molecular target: T3, Muscarinic acetylcholine receptor M4 (Homo sapiens) (UniProt P08173); test: Positive allosteric modulator activity at human muscarinic M4 receptor by calcium mobilization assay
T3 sequence (whole entry): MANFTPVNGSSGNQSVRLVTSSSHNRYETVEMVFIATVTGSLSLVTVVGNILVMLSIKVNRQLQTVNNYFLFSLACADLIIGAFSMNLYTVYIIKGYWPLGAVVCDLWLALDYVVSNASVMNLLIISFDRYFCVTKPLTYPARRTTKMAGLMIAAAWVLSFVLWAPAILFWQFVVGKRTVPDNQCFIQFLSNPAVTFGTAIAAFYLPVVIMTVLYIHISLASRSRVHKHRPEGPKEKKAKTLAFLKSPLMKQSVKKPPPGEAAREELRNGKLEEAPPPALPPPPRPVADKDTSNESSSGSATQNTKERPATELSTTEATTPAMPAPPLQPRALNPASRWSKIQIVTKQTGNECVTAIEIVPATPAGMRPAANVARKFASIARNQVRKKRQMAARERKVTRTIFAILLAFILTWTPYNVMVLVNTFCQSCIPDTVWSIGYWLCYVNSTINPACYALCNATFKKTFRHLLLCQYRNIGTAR

Structure (SMILES) | Activity [1] | EC50 [2] | Activity [3] | other results
Cn1cc(-c2ccc(CN3C(=O)NCc4ccccc43)c(F)c2)cn1 | 53% | > 10 µM | – | –
Cn1cc(-c2ccc(CN3C(=O)COc4ccccc43)c(F)c2)cn1 | 52% | 5.2 µM | – | –
Cn1cc(-c2ccc(CN3C(=O)C(O)(C(F)(F)F)c4ccccc43)c(Cl)c2)cn1 (racemic) | 29% | > 10 µM | – | –
Cn1cc(-c2ccc(CN3C(=O)C[S+]([O-])c4ccccc43)c(F)c2)cn1 (centres undefined) | 46% | > 10 µM | – | –
Cn1cc(-c2ccc(CN3C(=O)CSc4ccccc43)c(F)c2)cn1 | 30% | 3.2 µM | – | –
Cn1cc(-c2ccc(CN3C(=O)C(N)c4ccccc43)c(F)c2)cn1 (racemic) | 50% | 1.3 µM | – | –
Cn1cc(-c2ccc(CN3C(=O)C(F)(C(F)(F)F)c4ccccc43)c(F)c2)cn1 (racemic) | 25% | > 10 µM | – | –
Cn1cc(-c2ccc(CN3C(=O)C(C)(N)c4ccccc43)c(F)c2)cn1 (racemic) | 28% | > 10 µM | – | –
Cn1cc(-c2ccc(Cn3c4ccccc4c4cccnc43)c(F)c2)cn1 | – | – | inactive | –
CCCn1cc(-c2ccc(CN3C(=O)C(O)(C(F)(F)F)c4ccccc43)c(F)c2)cn1 (racemic) | – | – | inactive | –
COc1nc2ccccc2n1Cc1ccc(-c2cnn(C)c2)cc1F | – | – | inactive | –
CN(C)C1(C)C(=O)N(Cc2ccc(-c3cnn(C)c3)cc2)c2ccccc21 (racemic) | 48% | > 10 µM | – | –
Cn1cc(-c2ccc(CN3CC(c4ccccc4)CC3=O)c(F)c2)cn1 (centres undefined) | – | – | inactive | –
Cn1cc(-c2ccc(CN3C(=O)CCc4ccccc43)c(F)c2)cn1 | 44% | 5.6 µM | – | –
Cn1cc(-c2ccc(CN3CCc4ccccc43)c(F)c2)cn1 | – | – | inactive | –
Cn1cc(-c2ccc(CN3C(=O)C(O)(C(F)(F)F)c4ccccc43)c(F)c2)cn1 (racemic) | 51% | – | – | fold change (FC) [4]: 7.4
COC1(C(F)(F)F)C(=O)N(Cc2ccc(-c3cnn(C)c3)cc2F)c2ccccc21 (racemic) | – | – | inactive | –
Cn1cc(-c2ccc(Cn3ccccc3=O)c(F)c2)cn1 | – | – | inactive | –
Cn1cc(-c2ccc(Cn3c(=O)[nH]c4ccccc43)c(F)c2)cn1 | – | – | inactive | –
Cn1cc(-c2ccc(CN3CCSc4ccccc43)c(F)c2)cn1 | – | – | inactive | –

Structure (SMILES) | Activity [1] | EC50 [2] | Activity [3] | other results
Cn1cc(-c2ccc(CN3C(=O)C(=O)c4ccccc43)c(F)c2)cn1 | 45% | 0.6 µM | – | fold change (FC) [4]: 2.7
Cn1cc(-c2ccc(CN3C(=O)C(O)(C(F)(F)F)c4ccccc43)c(F)c2)cn1 (centres undefined) | – | – | inactive | –
Cn1cc(-c2ccc(CN3C(=O)C(O)(CF)c4ccccc43)c(F)c2)cn1 (racemic) | 59% | > 10 µM | – | fold change (FC) [4]: 8
O=C1N(Cc2ccc(-c3cn[nH]c3)cc2F)c2ccccc2C1(O)C(F)(F)F (racemic) | – | – | inactive | –
Cn1cc(-c2ccc(CN3C(=O)OCc4ccccc43)c(F)c2)cn1 | 62% | > 10 µM | – | –
Cn1cc(-c2ccc(CN3C(=O)C(O)(C(F)(F)F)c4ccccc43)cc2)cn1 (racemic) | 66% | 4 µM | – | fold change (FC) [4]: 15.2
Cn1cc(-c2ccc(Cn3c(=O)ccc4ccccc43)c(F)c2)cn1 | 51% | > 10 µM | – | –
Cn1cc(-c2ccc(CN3C(=O)CS(=O)(=O)c4ccccc43)c(F)c2)cn1 | 36% | > 10 µM | – | –
Cn1cc(-c2ccc(CN3c4ccccc4CS3(=O)=O)c(F)c2)cn1 | 41% | > 10 µM | – | –
CC(=O)N(Cc1ccc(-c2cnn(C)c2)cc1F)c1ccccc1 | – | – | inactive | –
CCn1cc(-c2ccc(CN3C(=O)C(O)(C(F)(F)F)c4ccccc43)c(F)c2)cn1 (racemic) | 37% | 3.3 µM | – | –
Cn1cc(-c2ccc(CN3C(=O)C(C)(O)c4ccccc43)c(F)c2)cn1 (racemic) | 49% | > 10 µM | – | fold change (FC) [4]: 6.5
Cn1cc(-c2ccc(CN3C(=O)C(O)(C(F)(F)F)c4ccccc43)c(F)c2)cn1 (stereo in doubt; 23h) | 57% | – | – | fold change (FC) [4]: 12
Cn1cc(-c2ccc(CN3C(=O)c4cccc5cccc3c45)c(F)c2)cn1 | – | – | inactive | –
Cn1cc(-c2ccc(CN3C(=O)Cc4ccccc43)c(F)c2)cn1 | 64% | 2.4 µM | – | Activity [5]: Active; fold change (FC) [4]: 27.2
Cn1cc(-c2ccc(CN3C(=O)C(F)(F)c4ccccc43)c(F)c2)cn1 | – | – | inactive | –
Cn1cc(-c2ccc(CN3C(=O)CCCc4ccccc43)c(F)c2)cn1 | – | – | inactive | –
Cn1cc(-c2ccc(Cn3c4ccccc4c4nccnc43)c(F)c2)cn1 | – | – | inactive | –
CC1C(=O)N(Cc2ccc(-c3cnn(C)c3)cc2F)c2ccccc21 (racemic) | 53% | > 10 µM | – | –
CC(C)n1cc(-c2ccc(CN3C(=O)C(O)(C(F)(F)F)c4ccccc43)c(F)c2)cn1 (racemic) | – | – | inactive | –
